Reference: PubChem BioAssay (NCI)
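All cell lines were grown in 96-well plates and treated with compound for 48 hours. GI50: concentration for 50% inhibition of growth. Definition used: TGI = concentration required for complete inhibition of growth.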

Experiments:
Assay in all cases: NCI tumour cell line growth inhibition, 48 h
ACHN renal = system: ACHN renal
HCT-116 colon = system: HCT-116 colon
IGROV1 ovarian = system: IGROV1 ovarian
K-562 leukemia = system: K-562 leukemia
MDA-MB-231 breast = system: MDA-MB-231 breast
SF-295 CNS = system: SF-295 CNS
SN12C renal = system: SN12C renal
HL-60(TB) leukemia = system: HL-60(TB) leukemia
NCI-H23 lung = system: NCI-H23 lung
TK-10 renal = system: TK-10 renal
UO-31 renal = system: UO-31 renal

Structure (SMILES) | TGI (ACHN renal) [µM] | TGI (HCT-116 colon) [µM] | TGI (IGROV1 ovarian) [µM] | TGI (K-562 leukemia) [µM] | TGI (MDA-MB-231 breast) [µM] | TGI (SF-295 CNS) [µM] | TGI (SN12C renal) [µM] | TGI (HL-60(TB) leukemia) [µM] | TGI (NCI-H23 lung) [µM] | TGI (TK-10 renal) [µM] | TGI (UO-31 renal) [µM] | GI50 (ACHN renal) [µM] | GI50 (IGROV1 ovarian) [µM] | GI50 (K-562 leukemia) [µM] | GI50 (MDA-MB-231 breast) [µM] | GI50 (SF-295 CNS) [µM] | GI50 (SN12C renal) [µM] | GI50 (TK-10 renal) [µM] | GI50 (UO-31 renal) [µM]
CSc1cc(Cl)c(C)cc1S(=O)(=O)NC(=O)NNc1ccccn1 | > 100 | > 100 | > 100 | > 100 | > 100 | > 100 | > 100 |  |  |  |  |  |  |  |  |  |  |  | 
CCCC(=O)N[C@@H](Cc1cc(I)c(O)c(I)c1)C(=O)NCCCNCCCCNCCCNC(=O)[C@@H](N)CCCN=C(N)N | > 100 | > 100 | > 100 | > 100 |  |  | > 100 | > 100 | > 100 | > 100 | > 100 |  |  |  |  |  |  |  | 
C/C=C/OC1C(C2COC(C)(C)O2)OC2OC(C)(C)OC21 (centres undefined) | > 100 | > 100 | > 100 | > 100 | > 100 | > 100 |  | > 100 | > 100 | > 100 | > 100 |  |  |  |  |  |  |  | 
CC(=O)/C=C/c1c[nH]c(=O)[nH]c1=O |  | 388 | 861 | 967 |  | 751 | 573 | 528 | 745 |  | 397 |  |  |  |  |  |  |  | 
Cc1ccc(S(=O)(=O)OCC23CCC(C4CC42)C2CC23)cc1 (centres undefined) | > 100 | > 100 | > 100 | > 100 |  | > 100 | > 100 | 37.8 | > 100 | > 100 | > 100 |  |  |  |  |  |  |  | 
O=C(/C=C/c1ccc(Cl)c(Cl)c1)CCN1CCN(CCC(=O)/C=C/c2ccc(Cl)c(Cl)c2)CC1 | 34.5 | 23.8 | 49 | > 100 | 56.7 | 46.5 | 80.9 | > 100 |  | 36.6 | 32.6 |  |  |  |  |  |  |  | 
CCOC(=O)c1ccc(Nc2nc3ccc(C(F)(F)F)cc3nc2-c2ccccc2)cc1 | > 100 | > 100 | > 100 | > 100 |  | > 100 | > 100 | > 100 | > 100 | > 100 | > 100 |  |  |  |  |  |  |  | 
COc1cc2cnc3c(c2cc1OC)Cc1cc2c(cc1-3)OCO2 | 19.4 | > 50.3 | > 62.9 | > 100 | > 100 | > 37.6 | > 100 |  | 24.6 | 2.83 | > 43.3 | < 0.0143 | 0.014 | < 0.01 | 0.179 | < 0.01 | > 100 | < 0.01 | < 0.0193
FC(F)(F)C1(C(F)(F)F)OC(Cl)(Cl)C(Cl)(Cl)O1 | > 10 | > 10 | > 10 |  | > 10 | > 10 |  |  | > 10 | > 10 |  |  |  |  |  |  |  |  | 
CCOP(=O)(OCC)C(Cc1ccccc1)N=C(c1ccccc1)c1ccccc1 (centres undefined) | 28.6 | 30.8 | 26.8 | 41.9 |  | 25.8 | 35.2 | > 100 | 28.6 | 23.6 | 24.4 |  |  |  |  |  |  |  | 
C=C1CC(CNc2cc(Cl)nc(N)n2)C1 | > 100 |  | > 100 | > 100 | > 100 | > 100 | > 100 | > 100 | > 100 | > 100 | > 100 |  |  |  |  |  |  |  | 
CSc1nc(-c2cc3c(c(SC)n2)CCC3)cc2c1CCC2 | > 100 | > 100 |  | > 100 | > 100 | > 100 | > 100 | > 100 | > 100 | > 100 | > 100 |  |  |  |  |  |  |  | 
CCCCCC(/C=N/NC(N)=S)C(O)(C(F)(F)F)C(F)(F)F (centres undefined) | > 10 | > 10 | > 10 | > 10 | > 10 | > 10 | > 10 |  | > 10 | > 10 |  |  |  |  |  |  |  |  | 
CCCN(CCC)C(=O)Cc1c2n(c3ccccc13)Cc1ccccc1-2 | > 100 | > 100 |  | > 100 |  | > 100 | > 100 | > 100 | > 100 | > 100 | > 100 |  |  |  |  |  |  |  | 
c1ccc(-c2cc(-c3cc(-c4ccccc4)n[nH]3)[nH]n2)cc1 | > 100 | > 100 | > 100 | > 100 | > 100 | > 100 | > 100 |  | > 100 | > 100 | > 100 |  |  |  |  |  |  |  | 
N#Cc1nc(Cc2ccccc2)oc1N | > 100 | > 100 | > 100 | > 100 | > 100 | > 100 | > 100 |  | > 100 | > 100 | > 100 |  |  |  |  |  |  |  | 
COc1ccc(/C=N/n2c(Cc3ccc(Cl)cc3)n[nH]c2=O)cc1 | > 100 | > 100 | 48 | > 100 | 26.6 | 49.9 | > 100 |  | > 100 |  | > 100 |  |  |  |  |  |  |  | 

Structure (SMILES) | TGI (ACHN renal) [µM] | TGI (HCT-116 colon) [µM] | TGI (IGROV1 ovarian) [µM] | TGI (K-562 leukemia) [µM] | TGI (MDA-MB-231 breast) [µM] | TGI (SF-295 CNS) [µM] | TGI (SN12C renal) [µM] | TGI (HL-60(TB) leukemia) [µM] | TGI (NCI-H23 lung) [µM] | TGI (TK-10 renal) [µM] | TGI (UO-31 renal) [µM] | GI50 (ACHN renal) [µM] | GI50 (IGROV1 ovarian) [µM] | GI50 (K-562 leukemia) [µM] | GI50 (MDA-MB-231 breast) [µM] | GI50 (SF-295 CNS) [µM] | GI50 (SN12C renal) [µM] | GI50 (TK-10 renal) [µM] | GI50 (UO-31 renal) [µM]
Cc1ccc(NC(=S)NNC(=O)c2cc(-c3ccccc3)nc3ccccc23)cc1C | 67.6 | 36.9 | 63.6 | 79.5 | 57.7 | 29.6 | 38.1 |  | 48.2 | 63.1 | 36.3 |  |  |  |  |  |  |  | 
CC(C)(C)OC(=O)/C=C/C(=O)O/C=C/[N+](=O)[O-] | > 100 | > 100 | > 100 | > 100 | > 100 | > 100 | > 100 |  | > 100 | > 100 | > 100 |  |  |  |  |  |  |  | 
CCOC(=O)c1cc2cc(CSc3ccccc3)ccc2oc1=O | > 100 | > 100 | > 100 | > 100 | > 100 | > 100 | > 100 |  | > 100 | > 100 | > 100 |  |  |  |  |  |  |  | 
Cn1c2c(c3ccccc31)CC(=O)N1CCCCC1C21OCCO1 (centres undefined) | > 100 | > 100 | > 100 |  | > 100 | > 100 | > 100 |  | > 100 | > 100 | > 100 |  |  |  |  |  |  |  | 
O=C(/C(Cl)=C/c1ccccc1)c1ccccc1 | 4.81 | 2.78 |  | > 26 | 20.6 | 37.6 | 3.92 |  | 26 | 11.7 | 5.49 |  |  |  |  |  |  |  | 
O=[N+]([O-])C(=C/C1CCCCC1)/C(=C\C1CCCCC1)[N+](=O)[O-] | 10.7 | 17.7 | 20.6 | > 82 | 8.98 | 32.8 | 11.5 |  | 10.1 | 16.8 | 22.4 |  |  |  |  |  |  |  | 
COc1ccc(S(=O)Cc2cc(OC)ccc2OC)cc1 (centres undefined) | > 100 | > 100 | > 100 | > 100 | > 100 | > 100 | > 100 |  | > 100 | > 100 | > 100 |  |  |  |  |  |  |  | 
O=C(c1ccc(Cl)cc1)N(C(=S)N1CCN(c2ccccc2)CC1)c1ccccc1 | > 100 | > 100 | > 100 | > 100 |  | > 100 | > 100 | > 100 | > 100 | > 100 | > 100 |  |  |  |  |  |  |  | 
C(/C=N/NC1=NCCN1)=N\NC1=NCCN1 | > 100 | > 100 | > 100 | 31.6 | > 100 | > 100 |  | 34.2 | > 100 |  | > 100 |  |  |  |  |  |  |  | 
C=CCC1(O)c2cccc(O)c2C(=O)c2cccc(O)c21 (centres undefined) | 69.2 | 31.1 | > 100 | > 100 | 53.4 | 38.3 |  | 34.2 | 31.7 | 73.5 | 52.8 |  |  |  |  |  |  |  | 
O=S(=O)(NC(c1ccccc1)(c1cc2ccccc2[nH]1)c1cc2ccccc2n1S(=O)(=O)c1ccccc1)c1ccccc1 (centres undefined) |  | > 100 | > 100 | > 100 | > 100 | > 100 |  | > 100 | > 100 | > 100 | > 100 |  |  |  |  |  |  |  | 
Nc1ccccc1Sc1ccc(Cl)cc1 | 99.2 | > 100 | > 100 | 94.4 |  | > 100 | 56.1 | 53.3 | 64.4 | > 100 | 51 |  |  |  |  |  |  |  | 
Cn1c2ccccc2n2c3ccccc3c(=S)c(C#N)c12 | > 100 | > 100 | > 100 | > 100 |  | > 100 |  | > 100 | > 100 | > 100 | > 100 |  |  |  |  |  |  |  | 
N#C[C@](CO)(NC(=O)OCc1ccccc1)C(F)F | > 100 | > 100 | > 100 | > 100 | > 100 | > 100 |  | > 100 | > 100 | > 100 | > 100 |  |  |  |  |  |  |  | 
C=CCN1C(=O)/C(=C/c2cccs2)N=C1SC1OC(COC(=O)c2ccccc2)C(OC(=O)c2ccccc2)C1OC(=O)c1ccccc1 (centres undefined) | > 100 |  | > 100 | > 100 | > 100 | > 100 |  | > 100 | > 100 | > 100 |  |  |  |  |  |  |  |  | 
COC(=O)[C@H]1ON2O[C@@H](O[C@H]3CCCC[C@@H]3C(C)(C)c3ccccc3)C[C@@H]3CC[C@H]1[C@@]32C | > 100 | > 100 | > 100 | > 100 |  | > 100 | > 100 | > 100 | > 100 | > 100 | > 100 |  |  |  |  |  |  |  | 
